Results reported in patent publication EP0414895A1, “OROTATE OF $g(a)-AMINO-$g(b)-PHENYL-BUTYRIC ACID” (NAUCHNO-PROIZVODSTVENNOE OBIEDINENIE "BIOLAR", priority 1989, dated 1990).
Where a name gives a salt, the structure may show the parent alone.

How the values were obtained:
Mäuse [1] = experiment: Hypoxia by subcutaneous Natriumnitroprussid, survival, mice; format: in vivo
Experimental: (§1) Die […] Hypoxie wurde durch die subkutane Einführung von Natriumnitroprussid in einer Dosis von 20 mg/kg den Gruppen von Mäusen und Ratten zu I0 Stück in der Gruppe erzeugt. Natriumnitroprussid wurde 60 min nach der Einführung der Prüfverbindungen verabreicht. Die Angaben sind in Tabelle I5 (für Mäuse) und I6 (für Ratten) angeführt.

Mäuse [2] = experiment: Habituation study: motor activity in actometer on repeated dosing; format: in vivo
Experimental: (§2) Zur Untersuchung der Gewöhnung an die Wirkung der erfindungsgemässen Verbindung wurde die Dynamik der Benehmungseffekte an Mäusen beiderlei Geschlechts untersucht. In jeder Gruppe waren je I2 bis I8 Tiere. Die erfindungsgemässe Verbindung und γ -Amino- β - -phenylbuttersäurehydrochlorid wurden intraperitoneal in Dosen von 75 mg/kg bzw. 48 mg/kg zweimal am Tag eingeführt. Es wurden die Körpermasse, der Einfluss auf die motorische Aktivität (im Aktometer) und auf die emotionelle Reaktivität aud dem Wege der elektrischen Schmerzreizung untersucht. Die Tiere wurden innerhalb von 15 bis 20 Tagen untersucht. […] Der sedative Effekt der beanspruchten Verbindung war während der ganzen Versuchsperiode aufrechterhalten (Tabelle 7).

Mäuse [3] = experiment: Thresholds of emotional reactivity and aggressiveness on electric pain stimulation, mice; format: in vivo
Source text: Es wurde auch die emotionelle Aktivität und Aggressivität der Tiere auf dem Wege der elektrischen Schmerzreizung untersucht.
In einer Kammer von 20 x 20 x 25 cm Ausmass, deren Boden - ein Metallgitter aus Stangen darstellt, wurde ein Paar Tiere untergebracht (männliche Mäuse) und es wurde der Wechselstrom durchgelassen. Die Spannung wurde dosenartig auf 5 V solange erhöht, bis der Strom das Piepsen (die Schwelle der emotionellen Reaktivität) und die Schlägerei der Tiere (die Schwelle der Aggressivität) auslöste. Jede Spannungsgrösse wurde innerhalb von 5 sec zweimal in einem Zeitabstand von 20 bis 50 Sekunden aufrechterhalten. Die Kontrolle des Benehmens der Tiere begann man I0 Minuten nach der Einführung der oben erwähnten Verbindungen. Die Angaben sind in Tabellen 3, 4 angeführt.

[4] = Habituation study: body mass; format: in vivo, Mäuse; conditions: 75 mg/kg bzw. 48 mg/kg i.p. twice daily, 15 to 20 days
Experimental: as §2

Ratten [5] = experiment: Natriumäthaminal intoxication, sleep duration, rats; format: in vivo
Experimental: (§3) Ausserdem wurde die Wirkung der beanspruchten Verbindung auf die durch Natriumäthaminal erzeugte Intoxikation untersucht. Die Versuche wurden an männlichen Mäusen und Ratten in Gruppen zu 8 bis I0 Tieren angestellt. Natriumäthaminal wurde intraperitoneal in einner Dosis von I00 mg/kg I5 min nach der enteralen Verabreichung der beanspruchten Verbindung oder der Kontrollarzneimittel eingeführt. Es wurde die einmalige und chronische Einwirkung (während I2 bis I4 Tage einmal täglich) von der neuen Verbindung, γ -Amino- β - -phenylbuttersäurehydrochlorid und Pyrazetam untersucht. Es wurde die Dauer der Seitenlage - des Schlafs der Tiere bestimmt. Die Ergebnisse dieser Untersuchung sind in Tabelle 23 (für Mäuse) und 24 (für Ratten) angeführt.

Ratten [6] = experiment: Thresholds of emotional reactivity and aggressiveness on electric pain stimulation, rats; format: in vivo
Ratten [7] = experiment: Hypoxia by subcutaneous Natriumnitroprussid, survival, rats; format: in vivo; conditions: Natriumnitroprussid 20 mg/kg s.c.
Experimental: as §1

Mäuse [8] = experiment: Motor and orientation activity in photoelectric actometer; format: in vivo; conditions: counted 60 min from 10 min after dosing
Source text: Zur Bestimmung der sedativen Wirksamkeit wurde die motorische und Orientierungsaktivität und die motorische Fähigkeit in Versuchen an Mäusen und Ratten untersucht.
Den Versuchstieren wurden die beanspruchte Verbindung, γ -Amino- β -phenylbuttersäurehydrochlorid und Pyrazetam eingeführt. Als Kontrolle diente die physiologische Lösung (0,9%ige NaCl-Lösung). Die Untersuchungen wurden an I0 bis I2 erwachsenen Tieren (Mäuse, Ratten) durchgeführt.
Bei der Bestimmung der motorischen und Orientierungsaktivität wurde jede Maus in einer Einzelkamner des photoelektrischen Aktometers untergebracht. Die motorische und Orientierungsaktivität wurde nach der Zahl der Impulse bestimmt, die beim Berühren der Aktometerkontakte durch das Tier entstanden. Das Zählen der Im pulse wurde I0 min nach der intraperitonealen Einführung der genannten Verbindungen begonnen und dauerte innerhalb von 60 min. Die Angaben sind in der Tabelle I angeführt.

Mäuse [9] = experiment: Natriumäthaminal intoxication, sleep duration, mice; format: in vivo
Experimental: as §3

Mäuse [10] = experiment: Swimming test at 40°C; format: in vivo; conditions: for Schwimmzeit: 40°C
Source text: Der Einfluss der beanspruchten Verbindung auf die physische Toleranz der Tiere wurde nach dem Schwimmtest der Mäuse und Ratten untersucht. Die Versuche wurden in einer Wanne von […] Fläche durchgeführt. Die Tiergruppe (8 bis I0 Mäuse oder Ratten) wurde ins Wasser gebracht und es wurde die Zeit der Schwimmfähigkeit bestimmt. Die neue Verbindung und γ -Amino- β - -phenylbuttersäurehydrochlorid wurden enteral und intraperitoneal I Stunde oder 3 Stunden vor dem Schwimmbeginn eingeführt. Die Untersuchung wurde sowohl nach der einmaligen als auch nach der chronischen (innerhalb von 20 Tagen einmal täglich) Einführung der genannten Verbindungen durchgeführt. Die Versuche wurden bei 3 Temperaturen angestellt: 2°C (Tabelle I7), 25°C (Tabelle I8) und 40°C (Tabelle I9).

Ratten [11] = experiment: Cold stress at 2°C, rectal temperature, rats; format: in vivo; conditions: for Rektaltemperatur nach I Stunde an der Kälte: 2°C; for Rektaltemperatur nach I Stunde: 1 h after dosing at room temperature
Experimental: Aus den in Tabellen angeführten Ergebnissen ist zu ersehen, dass die einmalige Einführung der neuen Verbindung die Schwimmdauer der Mäuse und Ratten wesentlich nicht beeinflusst. Nach der 20 Tage langen chronischen Einführung der neuen Verbindung wird die Schwimmdauer hingegen zuverlässig grösser - (Tabelle I7) um das I,5fache im kalten Wasser und um das 2,5fache bei einer Temperatur von 40°C (Tabelle I9) im Vergleich zu γ -Amino- β -phenylbuttersäurehydrochlorid. Auf diese Weise erhöht die chronische Einführung der neuen Verbindung wesentlich die physische Toleranz der Tiere. Ausserdem wurde auch die Toleranz der Tiere gegen den Kältestress bestimmt. Die Untersuchung wurde bei einer Temperatur von 2°C an Mäusen und Ratten durchgeführt, indem jedes Tier abgesondert in der Einzelkammer von I5 x 20 x 20 cm Ausmass untergebracht wurde. Es wurde die Rektaltemperatur vor der Einführung der neuen Verbindung, des γ -Amino- β - phenylbuttersäurehydrochlorids und der physiologischen Kontrollösung eine Stunde nach der Einführung bei Zimmertemperatur und nach I Stunde und 2 Stunden in der Kälte gemessen. Die Versuche wurden an einer Mäusengruppe (I0 Stück) (Tabelle 20) und an einer Rattengruppe (8 Stück) (Tabelle 2I) bei der einmaligen und chronischen Einführung innerhalb von 22 bzw. I6 Tagen einmal pro Tag angestellt.

[12] = 50 mg/kg chronic, 14 days + Natriumäthaminal 100 mg/kg i.p.
[13] = 50 mg/kg single + Natriumäthaminal 100 mg/kg i.p.

**Q.** With NCC(CC(=O)O)c1ccccc1 (stereo not drawn) [γ-Amino-β-phenylbutter-säurehydrochlorid, γ -Amino- β -phenylbuttersäurehydrochlorid, reference compound] as the molecule, how does the Überlebensdauer (Mäuse [1]; Natriumnitroprussid 20 mg/kg s.c., 35 mg/kg chronic, 10 days once daily) read?
**A.** Its Überlebensdauer is 515,6±34 sec.

**Q.** What about the “Anzahl der Impulse im Aktometer innerhalb von 45 min” value (Mäuse [2]; day 1, 48 mg/kg i.p. twice daily) of the same molecule?
**A.** The value was 75±19.

**Q.** What about the “Anzahl der Impulse im Aktometer innerhalb von 45 min” value (Mäuse [2]; day 5, 48 mg/kg i.p. twice daily) of the same molecule?
**A.** The value was 223±36.

**Q.** What about the “Anzahl der Impulse im Aktometer innerhalb von 45 min” value (Mäuse [2]; day 10, 48 mg/kg i.p. twice daily) of the same molecule?
**A.** The value was 257±38.

**Q.** And the “Anzahl der Impulse im Aktometer innerhalb von 45 min” value (Mäuse [2]; day 15, 48 mg/kg i.p. twice daily)?
**A.** The value was 283±47.

**Q.** What about the “Spannung in V, Schwelle der emotionellen Reaktivität” value (Mäuse [3]; 100 mg/kg) of the same molecule?
**A.** The value was 24,2±0,8 V.

**Q.** And the Körpermasse [4]?
**A.** Its Körpermasse is “veränderte sich wesentlich nicht”.

**Q.** What about the Schlafdauer (Ratten [5]; [12]) of the same molecule?
**A.** Its Schlafdauer is 290,0±17 min.

**Q.** And the Schlafdauer (Ratten [5]; [13])?
**A.** Its Schlafdauer is 288,6±27 min.

**Q.** And the “Spannung in V, die Schwelle der Aggressivität” value (Ratten [6]; 80,0 mg/kg)?
**A.** Its value is 44,6±0,6 V.

**Q.** What about the Überlebensdauer (Ratten [7]; 35 mg/kg chronic, 10 days once daily) of the same molecule?
**A.** The Überlebensdauer was 876,6±90 sec.

**Q.** What about the Überlebensdauer (Ratten [7]; 35 mg/kg single) of the same molecule?
**A.** The Überlebensdauer was 1359,0±100 sec.

**Q.** What about the “Anzahl der Impulse im Aktometer” value (Mäuse [8]; 16 mg/kg i.p.) of the same molecule?
**A.** Its value is 368±51.

**Q.** And the “Anzahl der Impulse im Aktometer” value (Mäuse [8]; 32 mg/kg i.p.)?
**A.** The value was 238±28.

**Q.** And the “Anzahl der Impulse im Aktometer” value (Mäuse [8]; 40 mg/kg i.p.)?
**A.** Its value is 158±21.

**Q.** And the Schlafdauer (Mäuse [9]; 35 mg/kg chronic, 12 days + Natriumäthaminal 100 mg/kg i.p.)?
**A.** Its Schlafdauer is 390,0±37 min.

**Q.** What about the Schlafdauer (Mäuse [9]; 35 mg/kg single + Natriumäthaminal 100 mg/kg i.p.) of the same molecule?
**A.** The Schlafdauer was 274,3±32 min.

**Q.** And the Schwimmzeit (Mäuse [10]; 35 mg/kg chronic, 20 days)?
**A.** Its Schwimmzeit is 58±7,2 min.

**Q.** What about the Schwimmzeit (Mäuse [10]; 35 mg/kg single) of the same molecule?
**A.** The Schwimmzeit was 37,8±8 min.

**Q.** What about the “Rektaltemperatur nach I Stunde an der Kälte” value (Ratten [11]; 35 mg/kg chronic, 16 days) of the same molecule?
**A.** The value was 23,2±0,2.

**Q.** And the “Rektaltemperatur nach I Stunde” value (Ratten [11]; 35 mg/kg chronic, 16 days)?
**A.** The value was 30,4±0,3.

**Q.** Which Überlebensdauer (Mäuse [1]; Natriumnitroprussid 20 mg/kg s.c. 60 min after compound, 50 mg/kg single) does the source give for “γ -Amino- β -phenylbuttersäureorotat [Erfindungsgemässe Verbindung]” here?
**A.** Its Überlebensdauer is 740,3±68 sec.

**Q.** What about the Überlebensdauer (Mäuse [1]; Natriumnitroprussid 20 mg/kg s.c., 50 mg/kg chronic, 10 days once daily) of the same molecule?
**A.** The Überlebensdauer was 1083,7±80 sec.

**Q.** And the “Anzahl der Impulse im Aktometer innerhalb von 45 min” value (Mäuse [2]; day 1, 75 mg/kg i.p. twice daily)?
**A.** Its value is 125±25.

**Q.** What about the “Anzahl der Impulse im Aktometer innerhalb von 45 min” value (Mäuse [2]; day 5, 75 mg/kg i.p. twice daily) of the same molecule?
**A.** The value was 108±21.

**Q.** What about the “Anzahl der Impulse im Aktometer innerhalb von 45 min” value (Mäuse [2]; day 10, 75 mg/kg i.p. twice daily) of the same molecule?
**A.** The value was 109±47.

**Q.** What about the “Anzahl der Impulse im Aktometer innerhalb von 45 min” value (Mäuse [2]; day 15, 75 mg/kg i.p. twice daily) of the same molecule?
**A.** The value was 123±17.

**Q.** What about the “Spannung in V, Schwelle der Agressivität” value (Mäuse [3]; 37 mg/kg) of the same molecule?
**A.** The value was 29,8±2,4 V.

**Q.** What about the Körpermasse [4] of the same molecule?
**A.** Its Körpermasse is “veränderte sich wesentlich nicht”.

**Q.** And the Schlafdauer (Ratten [5]; 25 mg/kg single + Natriumäthaminal 100 mg/kg i.p.)?
**A.** The Schlafdauer was 314,8±22 min.

**Q.** What about the Schlafdauer (Ratten [5]; [12]) of the same molecule?
**A.** Its Schlafdauer is 167,4±23 min.

**Q.** What about the Schlafdauer (Ratten [5]; [13]) of the same molecule?
**A.** Its Schlafdauer is 306,4±16 min.

**Q.** What about the “Spannung in V, die Schwelle der emotionnellen Reaktivität” value (Ratten [6]; 20,0 mg/kg) of the same molecule?
**A.** Its value is 23,4±0,8 V.

**Q.** And the “Spannung in V, die Schwelle der emotionnellen Reaktivität” value (Ratten [6]; 40,0 mg/kg)?
**A.** The value was 27,6±0,4 V.

**Q.** And the “Spannung in V, die Schwelle der Aggressivität” value (Ratten [6]; 60,0 mg/kg)?
**A.** The value was 44,8±0,6 V.

**Q.** And the “Spannung in V, die Schwelle der emotionnellen Reaktivität” value (Ratten [6]; 150,0 mg/kg)?
**A.** Its value is 34,2±2,2 V.

**Q.** What about the Überlebensdauer (Ratten [7]; 50 mg/kg chronic, 10 days once daily) of the same molecule?
**A.** Its Überlebensdauer is 1133,0±54 sec.

**Q.** What about the Überlebensdauer (Ratten [7]; 50 mg/kg single) of the same molecule?
**A.** Its Überlebensdauer is 1247,0±94 sec.

**Q.** What about the “Anzahl der Impulse im Aktometer” value (Mäuse [8]; 25 mg/kg i.p.) of the same molecule?
**A.** The value was 322±43.

**Q.** And the “Anzahl der Impulse im Aktometer” value (Mäuse [8]; 50 mg/kg i.p.)?
**A.** The value was 208±27.

**Q.** What about the “Anzahl der Impulse im Aktometer” value (Mäuse [8]; 75 mg/kg i.p.) of the same molecule?
**A.** Its value is 123±18.

**Q.** What about the Schlafdauer (Mäuse [9]; 50 mg/kg chronic, 12 days + Natriumäthaminal 100 mg/kg i.p.) of the same molecule?
**A.** The Schlafdauer was 178,4±14 min.

**Q.** And the Schlafdauer (Mäuse [9]; [13])?
**A.** The Schlafdauer was 261,3±21 min.

**Q.** What about the Schwimmzeit (Mäuse [10]; 50 mg/kg single) of the same molecule?
**A.** The Schwimmzeit was 57,6±5,6 min.

**Q.** And the “Schwimmdauer grösser um das ...fache bei einer Temperatur von 40°C” value (Mäuse [10]; after 20 days chronic administration, Tabelle I9, compared with γ-Amino-β-phenylbuttersäurehydrochlorid as worded)?
**A.** Its value is 2,5 fache.

**Q.** What about the “Rektaltemperatur vor der Einführung der Verbindung” value (Ratten [11]; 50 mg/kg chronic, 16 days) of the same molecule?
**A.** Its value is 30,7±0,2.

**Q.** And the “Rektaltemperatur nach I Stunde an der Kälte” value (Ratten [11]; 50 mg/kg chronic, 16 days)?
**A.** The value was 27,0±0,3.

**Q.** And the “Rektaltemperatur vor der Einführung der Verbindung” value (Ratten [11]; 50 mg/kg single)?
**A.** Its value is 30,4±0,3.

**Q.** What about the “Rektaltemperatur nach I Stunde” value (Ratten [11]; 50 mg/kg single) of the same molecule?
**A.** The value was 30,9±0,3.
